This is an account of results in the RepoRT retention time repository (doi:10.1021/es4044374).

A short description of the data set: RP, Waters XBridge C18, 50 × 2.1 mm, 3.5 µm, 30 °C, 0.2 mL/min, estimated dead time 0.55 min; A: water + 0.1% formic acid, pH 3; B: methanol + 0.1% formic acid, pH 3; gradient (min/%B) 0/10 4/50 17/95 25/95 25.1/10 30/10. The following applies: stereoisomer not certain.
For `CC1COC(=O)c2cc3c(cc21)C(C)(C)C(C)C3(C)C` (configuration not stated) [Galaxolidone], the LC retention time is 14.7 min. Take `O=C(O)C(F)(F)C(F)(F)C(F)(F)C(F)(F)C(F)(F)C(F)(F)C(F)(F)C(F)(F)C(F)(F)C(F)(F)F` [Perfluoroundecanoic acid]: the LC retention time is 16.3 min. The same measure for `COCC(C)N(C(=O)CS(=O)(=O)O)c1c(C)csc1C` (configuration not stated) [Dimethenamide ESA]: 6.7 min.

With `CNC(=O)Nc1ccc(C(C)C)cc1` [Isoproturon-monodemethyl], the LC retention time was 8.6 min.

Turning to `Cn1ncc(N)c(Cl)c1=O` [Chloridazone-methyl-desphenyl], the LC retention time was 2.2 min. In the case of `NS(=O)(=O)c1cc2c(cc1Cl)NCNS2(=O)=O` [Hydrochlorothiazide], the LC retention time was 2.2 min. Regarding `O=C(O)C(F)(F)C(F)(F)C(F)(F)C(F)(F)C(F)(F)C(F)(F)F` [Perfluoroheptanoic acid], the LC retention time was 11.1 min.

As for `CNC(=O)Nc1ccc(Cl)c(Cl)c1` [Diuron-desmethyl], the LC retention time is 8.5 min. The same measure for `CCC(C)c1cc([N+](=O)[O-])cc([N+](=O)[O-])c1O` (configuration not stated) [Dinoseb]: 13 min; for `CCC(C)C(=O)OC1CC(O)C=C2C=CC(C)C(CCC(O)CC(O)CC(=O)O)C21` (configuration not stated) [Pravastatin]: 9.2 min; for `O=C(O)C(F)(F)C(F)(F)C(F)(F)C(F)(F)C(F)(F)C(F)(F)C(F)(F)C(F)(F)F` [Perfluorononanoic acid]: 13.9 min. Turning to `CCC(=O)C(CC(C)N(C)C)(c1ccccc1)c1ccccc1` (configuration not stated) [Methadone], the LC retention time was 8.4 min.

As for `CC(NC(C)(C)C)C(=O)c1cccc(Cl)c1` (configuration not stated) [Bupropion], the LC retention time is 5.8 min. Then `CC(C)N(C(=O)CS(=O)(=O)O)c1ccc(F)cc1` [Flufenacet ESA], with 6 min; and `NC(=O)c1c(Cl)cccc1Cl` [2,6-Dichlorobenzamide], with 4 min; and `N#CN=C1SCCN1Cc1ccc(Cl)nc1` [Thiacloprid], with 5.8 min.

For the molecule `CCCCCCCCCC[N+](C)(C)[O-]` [DDAO], the LC retention time is 10.4 min. Then `CCOP(=S)(OCC)Oc1cc(C)nc(C(C)C)n1` [Diazinon], with 13 min. Then `CCOCN(C(=O)CS(=O)(=O)O)c1c(C)cccc1CC` [Acetochlor ESA], with 7.7 min; and `Nc1cn[nH]c(=O)c1Cl` [Chloridazone-desphenyl], with 1.3 min; and `C[Si](Cn1cncn1)(c1ccc(F)cc1)c1ccc(F)cc1` [Flusilazole], with 12.4 min. Regarding `Nc1cnn(-c2ccccc2)c(=O)c1Cl` [Chloridazon], the LC retention time was 5.2 min.

Regarding `CCNc1nc(NCC)[nH]c(=O)n1` [Simazine-2-hydroxy], the LC retention time was 3.5 min. In the case of `COc1ccc(CCN(C)CCCC(C#N)(c2ccc(OC)c(OC)c2)C(C)C)cc1OC` (configuration not stated) [Verapamil], the LC retention time is 7.3 min. Then `CC(=O)Nc1ccc(S(=O)(=O)Nc2cc(C)on2)cc1` [N4-Acetylsulfamethoxazole], with 5.5 min. Then `CCS(=O)(=O)c1cccnc1S(=O)(=O)NC(=O)Nc1nc(OC)cc(OC)n1` [Rimsulfuron], with 7.9 min; and `O=C(O)C=C(F)C(F)(F)C(F)(F)C(F)(F)C(F)(F)C(F)(F)F` [6:2 fluorotelomer unsaturated carboxylic acid], with 13.6 min; and `O=C(O)c1cn(C2CC2)c2cc(N3CCNCC3)c(F)cc2c1=O` [Ciprofloxacin], with 4.5 min. The same measure for `CC(C)Nc1nc(N)nc(Cl)n1` [Atrazine-desethyl]: 5.6 min; for `COCC(=O)Nc1c(I)c(C(=O)NCC(O)CO)c(I)c(C(=O)N(C)CC(O)CO)c1I` (configuration not stated) [Iopromide]: 2.7 min; for `COc1ccc(CCC(=O)c2c(O)cc(OC3OC(CO)C(O)C(O)C3OC3OC(C)C(O)C(O)C3O)cc2O)cc1O` (configuration not stated) [Neohesperidin dihydrochalcone]: 7.2 min.

Consider `CCCN(CC)CC1COC2(CCC(C(C)(C)C)CC2)O1` (configuration not stated) [Spiroxamine], for which the LC retention time was 10.1 min. Then `CCNc1nc(NC(C)(C)C)nc(OC)n1` [Terbumeton], with 6.7 min; and `CNCCC(Oc1ccccc1C)c1ccccc1` (configuration not stated) [Atomoxetine], with 8 min; and `CCc1cccc(C)c1N(C(=O)CS(=O)(=O)O)C(C)COC` (configuration not stated) [Metolachlor ESA], with 7.8 min.

`OCC1OC(OC2(CCl)OC(CCl)C(O)C2O)C(O)C(O)C1Cl` (configuration not stated) [Sucralose]: the LC retention time was 4.4 min. For the molecule `Oc1ccc(C(F)(F)F)cc1` [4-Trifluoromethylphenol], the LC retention time was 8.9 min. Then `O=c1ccn(C2OC(CO)C(O)C2(F)F)c(=O)[nH]1` (configuration not stated) [2',2'-Difluoro-2'-deoxyuridine], with 1.7 min.

For the molecule `c1ccc2scnc2c1` [Benzothiazole], the LC retention time is 6.6 min. The same measure for `COC(=O)C(Cc1ccccc1)NC(=O)C(CC(=O)O)NCCC(C)(C)C` (configuration not stated) [Neotame]: 9 min. Then `O=C(O)C=C(F)C(F)(F)C(F)(F)C(F)(F)C(F)(F)C(F)(F)C(F)(F)C(F)(F)F` [8:2 fluorotelomer unsaturated carboxylic acid], with 16.1 min; and `O=P(O)(OCCC(F)(F)C(F)(F)C(F)(F)C(F)(F)C(F)(F)C(F)(F)F)OCCC(F)(F)C(F)(F)C(F)(F)C(F)(F)C(F)(F)C(F)(F)F` [Bisperfluorooctyl phosphate], with 18.1 min. Then `COc1cc(OC)nc(NC(=O)NS(=O)(=O)c2cc(NC=O)ccc2C(=O)N(C)C)n1` [Foramsulfuron], with 7.8 min; and `CN(C)CCCC1(c2ccc(F)cc2)OCc2cc(C#N)ccc21` (configuration not stated) [Citalopram], with 6.6 min. For the molecule `CCNS(=O)(=O)C(F)(F)C(F)(F)C(F)(F)C(F)(F)C(F)(F)C(F)(F)C(F)(F)C(F)(F)F` [N-Ethylperfluoroctansulfonamid (N-EtFOSA)], the LC retention time was 17.1 min. Consider `NCC(O)COc1ccc(CC(N)=O)cc1` (configuration not stated) [Atenolol-desisopropyl], for which the LC retention time is 1 min.

With `CCNc1nc(NC(C)(C)C)nc(SC)n1` [Terbutryn], the LC retention time is 8.5 min. For the molecule `CNCC(c1ccc(OC)cc1)C1(O)CCCCC1` (configuration not stated) [N-Desmethylvenlafaxine], the LC retention time is 6.3 min. On to `CCC(CO)NCCNC(CC)CO` (configuration not stated) [Ethambutol], for which the LC retention time was 9.6 min.

As to `CNCC(c1ccc(O)cc1)C1(O)CCCCC1` (configuration not stated) [N,O-Didesmethylvenlafaxine], the LC retention time is 4.9 min. The same measure for `NC(=O)N=C1SCCN1Cc1ccc(Cl)nc1` [Thiacloprid-amide]: 4.6 min; for `CCc1cccc(C)c1N1C(=O)COCC1C` (configuration not stated) [Metolachlor morpholinone]: 8.2 min. `Cc1cccc(Nc2ccccc2C(=O)O)c1C` [Mefenamic acid]: the LC retention time was 14.5 min.

As to `Nc1ccc(S(=O)(=O)Nc2ncccn2)cc1` [Sulfadiazine], the LC retention time is 2.2 min.

As to `CC(C)(Oc1ccc(Cl)cc1)C(=O)O` [Clofibric acid], the LC retention time was 10 min. In the case of `CC(C)c1ccc(N)cc1` [4-Isopropylaniline], the LC retention time is 5.2 min. Then `Cc1cc(Cl)ccc1OC(C)C(=O)O` (configuration not stated) [Mecoprop], with 10.8 min; and `CCOC(=O)NCCOc1ccc(Oc2ccccc2)cc1` [Fenoxycarb], with 12.6 min.

For the molecule `CC1=NNC(=O)N(N=Cc2cccnc2)C1` [Pymetrozine], the LC retention time was 1.5 min. As to `COCCc1ccc(OCC(O)CNC(C)C)cc1` (configuration not stated) [Metoprolol], the LC retention time is 5.1 min. As to `Cc1ccc(C(C)NC(=O)C(NC(=O)OC(C)C)C(C)C)cc1` (configuration not stated) [Iprovalicarb], the LC retention time is 11.4 min.

`COC(=O)NS(=O)(=O)c1ccc(N)cc1` [Asulam]: the LC retention time is 2.4 min. Regarding `O=C(O)C(F)(F)C(F)(F)C(F)(F)C(F)(F)C(F)(F)C(F)(F)C(F)(F)F` [Perfluorooctanoic acid], the LC retention time is 12.6 min. For the molecule `CC(C)(C)NCC(O)c1ccc(O)c(CO)c1` (configuration not stated) [Albuterol], the LC retention time was 2 min. Then `N#Cc1c[nH]cc1-c1cccc2c1OC(F)(F)O2` [Fludioxonil], with 10.7 min. For `CCCCC(C#N)(Cn1cncn1)c1ccc(Cl)cc1` (configuration not stated) [Myclobutanil], the LC retention time is 11.2 min. The same measure for `Fc1ccc(C2(Cn3cncn3)OC2c2ccccc2Cl)cc1` (configuration not stated) [Epoxiconazole]: 11.7 min.

Regarding `CCN(CC)C(=O)SCc1ccccc1Cl` [Orbencarb], the LC retention time is 13.3 min.

`CN(C(=O)CO)c1c(I)c(C(=O)NCC(O)CO)c(I)c(C(=O)NCC(O)CO)c1I` (configuration not stated) [Iomeprol]: the LC retention time was 1.6 min. `CON(C)C(=O)Nc1ccc(Cl)c(Cl)c1` [Linuron]: the LC retention time was 10 min. The same measure for `COC(=O)c1ccccc1S(=O)(=O)NC(=O)Nc1nc(C)nc(OC)n1` [Metsulfuron-methyl]: 7.1 min; for `CCCCNC(=O)OCC#CI` [Iodocarb]: 8.4 min. Turning to `CC(C)(Oc1ccc(C(=O)c2ccc(Cl)cc2)cc1)C(=O)O` [Fenofibric acid], the LC retention time is 12.6 min. The same measure for `Clc1cccc(N2CCNCC2)c1` [1-(3-Chlorophenyl)piperazine]: 5.2 min; for `CCc1cc(C)cc(CC)c1-c1c(OC(=O)C(C)(C)C)n2n(c1=O)CCOCC2` [Pinoxaden]: 13.7 min.

Turning to `O=P1(NCCCl)OCCCN1CCCl` (configuration not stated) [Ifosfamide], the LC retention time was 6.3 min. The same measure for `CCn1cc(C(=O)O)c(=O)c2cc(F)c(N3CCNCC3)cc21` [Norfloxacin]: 4.4 min.
